In patent US20090181369A1, “Methods for the Treatment of Disease” (priority 2005, published 2009):

What was measured:
[1] = tested on: chronic myeloid leukemia (CML); details: chronic phase CML patients; cited from earlier work
[2] = tested on: BaF3 cells expressing FNTB P152S; assay: cells; details: Mus musculus, BaF3, 336 h, read-out: Cellular IC50
FTase, β subunit W106R = FTase, β subunit W106R (Homo sapiens, UniProt P49356, W106R); details: all drug concentrations
[3] = tested on: BaF3 cells expressing wild-type FNTB; assay: cells; details: Mus musculus, BaF3, 336 h, read-out: Cellular IC50
[4] = tested on: BaF3 cells expressing FNTB G241E; assay: cells; details: Mus musculus, BaF3, 336 h, read-out: Cellular IC50
[5] = tested on: BaF3 cells expressing FNTB C95R; assay: soft agar colony assay (cellular IC50); details: Mus musculus, BaF3, 336 h, read-out: Cellular IC50
[6] = patients, reported (ref. 8); cited from earlier work
[7] = tested on: BaF3 cells expressing FNTB W106R; assay: soft agar colony assay (cellular IC50); details: Mus musculus, BaF3, 336 h, read-out: Cellular IC50

Row | IC50 [2] | HDJ2 farnesylation by western blot (FTase, β subunit W106R) | IC50 [3] | IC50 [4] | IC50 [5] | IC50 [7] | SMILES | response rate [1] | trough plasma concentrations [6]
1 | – | – | – | – | – | – | Cc1ccc(NC(=O)c2ccc(CN3CCN(C)CC3)cc2)cc1Nc1nccc(-c2cccnc2)n1 [imatinib] | over 90% | –
2 | 300 nM | 100% | 90 nM | 600 nM | 1800 nM | > 10000 nM | NC(=O)N1CCC(CC(=O)N2CCC([C@H]3c4ncc(Br)cc4CCc4cc(Cl)cc(Br)c43)CC2)CC1 [Lonafarnib, (+)-4-[2-[4-(8-Chloro-3,10-dibromo-6,11-dihydro-5H-benzo[5,6]cyclohepta[1,2-b]-pyridin-11(R)-yl)-1-piperidinyl]-2-oxo-ethyl]-1-piperidinecarboxamide] | – | 1.5 µM
